Experimental data reported in article PMC9569768, “Selective Anti-Leishmanial Strathclyde Minor Groove Binders Using an N-Oxide Tail-Group Modification” (International Journal of Molecular Sciences, 2022).
Converted amounts (≈) assume the structure as drawn. Where two headings read alike, the source gives them in different places. Marks after values point to notes of the source that are not given here.

Tests used:
[1] = tested on: DNA sequence 5′-CGCATATATGCG-3′; test: Native mass spectrometry of DNA binding stoichiometry; details: 9 μM DNA, 100 μM S-MGB, 150 mM ammonium acetate
Description: DNA sample preparation: The DNA oligonucleotide sequence 5′-[…]-3′ was purchased in lyophilised form from Alpha DNA, Montreal, Canada, and used without further purification; its purity was assessed via NMR. We prepared 100 μM stock solutions of DNA with 150 mM ammonium acetate buffer solution (Fisher Scientific, Loughborough, Leicestershire, UK) and 2 mM potassium chloride solution (Fisher Scientific, Loughborough, Leicestershire, UK). This solution was annealed at 90 degrees for 10 min and allowed to cool to room temperature. A total of 10 mM S-MGB stock in 100% DMSO (Sigma-Aldrich, St. Louis, MO, USA) was diluted to a 1 mM S-MGB solution with 150 mM ammonium acetate. The final samples were prepared from this solution to yield final concentrations of 9 μM DNA, 100 μM KCl, 100 μM S-MGB and 1% DMSO. DNA solutions containing no S-MGB included 1% DMSO and were used as controls.
Mass spectrometry measurements: Native mass spectrometry experiments were carried out using a Synapt G2Si instrument (Waters, Manchester, UK) with a nanoelectrospray ionisation source (nESI). Mass calibration was performed using a separate infusion of NaI cluster ions. […]

genomic DNA from salmon = test: UV-Vis DNA thermal melting, genomic DNA; format: binding; details: 10 µM S-MGB, 0.02 mg/mL salmon gDNA
Description: Salmon DNA (D1626, Sigma-Aldrich) at 1 mg/mL in 1 mM phosphate buffer (pH 7.4) containing 0.27 mM KCl and 13.7 mM NaCl (P4417, Sigma-Aldrich) was annealed at 90 °C for 10 min. MGB-BP-3 at 10 mM in DMSO was diluted with the same phosphate buffer, and combined with the salmon DNA stock, to yield a single sample with 10 µM S-MGB and 0.02 mg/mL gDNA in 1 mM phosphate buffer containing 0.27 mM KCl and 13.7 mM NaCl. Control samples containing only MGB-BP-3 or gDNA were prepared, respectively. The samples were melted at a rate of 0.5 °C/min from 45 °C to 90 °C, with spectra recorded at 260 nm on a UV-1900 UV-vis spectrophotometer fitted with a Peltier temperature controller (Shimadzhu, Kyoto, Japan), using LabSolutions (Tm Analysis) software. The melting temperatures (Tms) of the MGB-BP-3:DNA complexes were determined by fitting a sigmoidal function using a Boltzmann distribution in OriginPro. Two independent experiments were carried out and the values quoted with an error no worse than ±0.5 °C.

[2] = tested on: bloodstream form T. b. brucei (Lister 427); parameters: method as in PMID 34447938; details: data previously reported ref 19; cited from earlier work
S. aureus ATCC 43300 = test: Antibacterial assay (MIC, broth dilution); format: cell-based; details: Staphylococcus aureus, read-out: S. aureus MIC
Description: The inhibition of bacterial growth was determined by OD600, using a Tecan Infinite M Nano plate reader. The percentage of growth inhibition was calculated for each well, using the negative control (medium only) and positive control (bacteria without inhibitors) on the same plate. […] Each MIC determination was carried out in triplicate, on separate days.

d(5′-CGCATATATGCG-3′) = test: UV-Vis DNA thermal melting, short DNA oligo; format: binding; details: 2 MGB: 1 DNA, 10 mM PBS pH 7.4, 50 mM NaCl
Description: The DNA oligonucleotide sequence 5′-[…]-3′ was purchased in lyophilised form from Alpha DNA, Canada, and used without further purification, with purity assessed via NMR. The DNA oligomer was melted at a rate of 0.5 °C/min in 10 mM PBS buffer solution (pH 7.4) with 50 mM NaCl on a Cary 300 BIO UV–visible spectrophotometer fitted with a Peltier temperature controller. The programs were set and the data were processed using Cary WinUV software. The duplex oligomer was made to a concentration of 6 × 10^−6 M, heated to 90 °C and allowed to cool to room temperature unaided. This was mixed with sufficient S-MGB to give the appropriate ratio of 2 MGB: 1 DNA. For the reference melting temperature, no S-MGB was added. Samples were heated from 10 °C to 90 °C and cooled from 90 °C to 10 °C, with the spectra being recorded at 260 nm during both of these cycles. The melting temperatures (Tm) of the duplex oligomers were determined by fitting a sigmoidal function using a Boltzmann distribution in OriginPro.

[3] = tested on: L. donovani LV82 luc1 (MHOM/ET/67:LV82); test: Anti-Leishmania assay, intracellular amastigotes in bone marrow-derived macrophages, luciferase readout; format: cell-based; details: read-out: L. donovani IC50
Description: The compounds were screened in vitro for their antileishmanial activity against the intracellular amastigote stage. Briefly, bone marrow-derived macrophages (0.5 × 10^5 cells per well) were infected using a 20:1 host cell: parasite ratio with luciferase-expressing L. donovani LV82 luc1 (MHOM/ET/67:LV82). […] Amphotericin B solution was used as a positive control and was used at a starting concentration of 1 μM. The medium was removed from each sample at 72 h post-infection and replaced with 150 μL luciferin solution (150 μg mL^−1 luciferin in serum-free medium). The amount of bioluminescent signal emitted/well was determined and used to calculate the mean suppression in the bioluminescent signal for each test sample compared to the mean control values. The EC50 values were calculated and the mean EC50 was calculated from the three separate experiments.

hERG ion channel [4] = target: T1, hERG ion channel (Homo sapiens, UniProt Q12809); parameters: method as in PMID 22948178; details: compounds at 10 μM; data previously reported ref 20; cited from earlier work
T1 construct: expressed in transfected cells; host or cells: HEK293 cells (gift of Dr. J. Mitcheson, University of Leicester)

[5] = tested on: bloodstream form T. b. brucei (Lister 427); test: Anti-Trypanosoma alamarBlue assay; format: cell-based
Description: The bloodstream form T. b. brucei (Lister 427) was cultured in HMI-11 medium (Gibco) supplemented with 10% heat-inactivated FBS (Gibco), at 37 °C in a humidified 5% CO2 environment.
The EC50 values were determined using the in vitro alamarBlue assay. T. b. brucei parasites (2 × 10^4 cells per mL), were seeded into serial dilutions of the test compounds to a final volume of 200 μL and incubated for 48 h, after which 20 μL of 0.49 mM resazurin dye (Sigma-Aldrich, St. Louis, MO, USA) was added and the cells were incubated for a further 24 h. The reduction of resazurin was measured using a fluorimeter (FLUOstar Optima, BMG Labtech, Ortenberg, Germany) at 544 nm excitation and 590 nm emission wavelengths. The EC50 values were determined using Prism 5 software (GraphPad, San Diego, CA, USA). All experiments were carried out on at least three independent occasions.

hERG ion channel [6] = target: T1, hERG ion channel; test: hERG cell-binding assay, [3H]-astemizole displacement in hERG-transfected HEK293 cells; details: compounds at 10 μM
Description: hERG-transfected HEK293 cells were kindly gifted by Dr. J. Mitcheson, University of Leicester. The cell cultures were maintained in Gibco Dulbecco’s Modified Eagle Medium (D-MEM) + GlutaMAX1^TM medium supplemented with 10% foetal bovine serum ([…]), 1% penicillin–streptomycin and 0.8% Geneticin in a Sanyo humidified incubator (37 °C, 5% CO2). Once at 80–90% confluency, the cells were lifted using a PBS-based, enzyme-free Cell Dissociation Buffer. The cell suspension was counted using a Bright Line Haemocytometer and centrifuged at 1000 rpm for 5 min, and the supernatant discarded. The pellet was resuspended in ice-cold Tris-HCl, pH 7.4 (20 mM), with 1% phenylmethylsulfonyl fluoride (PMSF). […]
[^3H]-Astemizole binding in hERG-transfected HEK293 cells was performed in a […] total volume according to the following conditions: cells (~200,000 cells per assay tube, […]), [^3H]- astemizole (0.5 nM, […]), incubation buffer (10 mM HEPES, pH 7.4, 130 mM NaCl, 5 mM KCl, 0.8 mM MgCl2, 10 mM glucose, 0.1% BSA, 100 mL) for the total binding or drug compound ([…], 100 mL) for the single-point assay. Non-specific binding was determined using nonradiolabelled astemizole ([…], 100 mL). […] The radioactivity retained on the filters (pre-soaked in 0.5% PEI) was measured via counting in scintillation fluid (4 mL, Tri-Carb 1500 Packard; Emulsifier-Safe).

[7] = LUC1, intracellular amastigotes, 72 h post-infection, mean of 3 experiments

T1 sequence (Q12809 whole entry): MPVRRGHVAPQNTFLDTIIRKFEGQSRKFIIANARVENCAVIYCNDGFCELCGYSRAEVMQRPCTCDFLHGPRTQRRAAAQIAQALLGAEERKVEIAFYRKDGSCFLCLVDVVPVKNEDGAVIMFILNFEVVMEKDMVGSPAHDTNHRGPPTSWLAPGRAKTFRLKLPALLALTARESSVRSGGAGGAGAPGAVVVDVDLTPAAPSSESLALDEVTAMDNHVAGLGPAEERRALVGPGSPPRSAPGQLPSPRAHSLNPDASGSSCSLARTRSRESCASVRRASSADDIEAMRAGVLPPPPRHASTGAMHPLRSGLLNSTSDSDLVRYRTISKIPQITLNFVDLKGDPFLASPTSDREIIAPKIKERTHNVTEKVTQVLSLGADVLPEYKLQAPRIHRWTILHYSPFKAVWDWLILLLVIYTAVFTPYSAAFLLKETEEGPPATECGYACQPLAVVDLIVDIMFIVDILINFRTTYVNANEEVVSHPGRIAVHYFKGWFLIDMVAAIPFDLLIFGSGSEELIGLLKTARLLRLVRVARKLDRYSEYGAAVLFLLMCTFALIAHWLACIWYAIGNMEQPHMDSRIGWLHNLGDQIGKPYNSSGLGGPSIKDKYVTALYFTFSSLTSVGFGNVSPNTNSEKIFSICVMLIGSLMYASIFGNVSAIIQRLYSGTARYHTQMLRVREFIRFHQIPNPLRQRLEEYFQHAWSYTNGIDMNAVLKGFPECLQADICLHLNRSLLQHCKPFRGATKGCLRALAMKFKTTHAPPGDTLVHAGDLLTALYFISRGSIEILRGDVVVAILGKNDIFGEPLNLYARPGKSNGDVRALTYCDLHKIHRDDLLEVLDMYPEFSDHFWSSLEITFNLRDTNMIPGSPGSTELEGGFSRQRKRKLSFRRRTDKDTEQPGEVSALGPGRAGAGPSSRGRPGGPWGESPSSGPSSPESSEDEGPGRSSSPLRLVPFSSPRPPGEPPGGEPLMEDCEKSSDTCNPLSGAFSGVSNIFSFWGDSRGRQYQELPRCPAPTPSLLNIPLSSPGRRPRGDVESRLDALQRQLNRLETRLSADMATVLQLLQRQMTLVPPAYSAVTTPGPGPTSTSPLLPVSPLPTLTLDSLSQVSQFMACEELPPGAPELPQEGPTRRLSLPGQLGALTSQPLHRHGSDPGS

Cn1cc(NC(=O)c2cc(NC(=O)c3ccc(/C=C/c4cnc5ccccc5c4)cc3)cn2C)cc1C(=O)NCCN1CCOCC1 [S-MGB-3, 1-methyl-N-[1-methyl-5-({[2-(4-morpholinyl)ethyl]amino}carbonyl)-1H-pyrrol-3-yl]-4-({4-[(E)-2-(3-quinolinyl)ethenyl]benzoyl}amino)-1H-pyrrole-2-carboxamide]
binding stoichiometry to double-stranded DNA by nMS [1]: selectively bind to double-stranded DNA as a dimer only | binding stoichiometry to double-stranded DNA by nMS ([1]; listed as S-MGB-BP-3): bind 2xS-MGB molecules | Tm increase (genomic DNA from salmon): 12.6 °C | Melting Temperature of gDNA + S-MGB complex (genomic DNA from salmon; gDNA alone 69.6 ± 0.3): 82.2 ± 0.1 °C

N=C(N)c1ccc(OCCCCCOc2ccc(C(=N)N)cc2)cc1 [compound 1]
T. b. brucei MIC [2]: 0.78 * μM | MIC (S. aureus ATCC 43300; ATCC43300, 18 h, 37 °C): 50 µM (≈ 17 µg/mL) | ΔTm, DNA melting temperature increase (d(5′-CGCATATATGCG-3′)): 11 °C | IC50 [3, 7]: 3.5 ± 0.1 µM

N=C(N)c1ccc(-c2cc3ccc(C(=N)N)cc3[nH]2)cc1 [compound 2]
T. b. brucei MIC [2]: 1.56 * μM | MIC (S. aureus ATCC 43300; ATCC43300, 18 h, 37 °C): 3.12 µM (≈ 0.865 µg/mL) | ΔTm, DNA melting temperature increase (d(5′-CGCATATATGCG-3′)): 15 °C | hERG % displacement of [3H]-astemizole (hERG ion channel [4]): 58 ** % | IC50 [3, 7]: 5.7 ± 0.4 µM

Cn1cc(NC(=O)c2cc(NC(=O)c3cc(NC=O)cn3C)cn2C)cc1C(=O)NCCC(=N)N [compound 3]
T. b. brucei MIC [2]: <0.19 * μM | MIC (S. aureus ATCC 43300; ATCC43300, 18 h): 0.78 µM (≈ 0.376 µg/mL) | ΔTm, DNA melting temperature increase (d(5′-CGCATATATGCG-3′)): 17 °C | hERG % displacement of [3H]-astemizole (hERG ion channel [4]): 64 ** % | IC50 ([3]; LUC1, 72 h): 5.1 ± 0.7 µM

COc1cccc(/C=C/c2ccc(C(=O)Nc3cc(C(=O)Nc4cc(C(=O)NCC[N+]5([O-])CCOCC5)n(C)c4)n(C)c3)cc2)c1 [compound 206]
MIC (S. aureus ATCC 43300; ATCC43300, 18 h, 37 °C): > 100 µM | ΔTm, DNA melting temperature increase (d(5′-CGCATATATGCG-3′)): 1 °C | MIC [5]: 6.25 µM (≈ 3.92 µg/mL) | hERG % displacement of [3H]-astemizole (hERG ion channel [6]): 44% | IC50 [3, 7]: 2.4 ± 0.3 µM

COc1ccc(/C=C/c2ccc(C(=O)Nc3cc(C(=O)Nc4cc(C(=O)NCC[N+]5([O-])CCOCC5)n(C)c4)n(C)c3)cn2)cc1 [compound 207]
MIC (S. aureus ATCC 43300; ATCC43300, 18 h, 37 °C): > 100 µM | ΔTm, DNA melting temperature increase (d(5′-CGCATATATGCG-3′)): 1 °C | MIC [5]: 12.5 µM (≈ 7.85 µg/mL) | hERG % displacement of [3H]-astemizole (hERG ion channel [6]): 45% | IC50 [3, 7]: 3.1 ± 1 µM
